What was measured:
[1] = system: MPG nerve axon of old rats; test: MPG (major pelvic ganglion) culture, nerve axon growth; format: cell-based, rat; conditions: for MPG nerve axon growth compared to control group: old rats; for MPG nerve axon growth (length of the longest nerve axon): old rats (24-month-old), n = 9
Description: The 24-month-old Sprague-Dawley male rats were used. All experimental animals used in this study were under a protocol approved by the Institutional Animal Care and Use Committee. Rats were anesthetized by intraperitoneal injection of pentobarbital sodium (200 mg/kg). After midline incision on abdomen, major pelvic ganglion was carefully dissected from prostate. MPG culture and treatment: the Bilaterally MPG was rapidly removed and after washing with PBS, DCR were stripped from MPG and cut into 3 pieces with the same size. Reduced Growth Factor Matrigel (RGFM) was diluted three times with serum free RPMI-1640 medium and placed in the 35 mm Petri dish on ice. The diluted RGFM were poured onto the cold sterilized glass cover slip and incubated at 37° C. for 1 hour in 35 mm Petri dishes to make the RGFM steady. Then each MPG was embedded in 40 μl of pre-cooled RGFM and maintained at 37° C. for 5 minute and cultured in RPMI 1640 with 1% penicillin-streptomycin that is maintained in humidified cell culture incubator containing 5% CO2 at 37° C. The cultured MPG tissues were randomly divided into 3 groups: control group, icariside II and sildenafil groups. […] Three MGP from the younger groups and the three MPG from the older groups were cultured with designation dose for 48-72 hours. Measurement of nerve axon growth: at the 48 and 72 hours, Nikon DXM1200 digital camera connected to Zeiss Axiovert microscope and ACT-1 software (20 times magnification) was used to observe the nerve axon growth on the MPG. The digital image was analyzed by […] 4000 and the length of the longest nerve axon was calculated.

[2] = system: Corpus cavernosum smooth muscle cells; test: Western blot protein expression of NOS isoforms, PDE5, PKG and sGC in corpus cavernosum smooth muscle cells; format: cell-based, human; conditions: 12.5 μM; 1 and 2 days
Description: Corpus cavernosum smooth muscle cells were grown in 60 mm Petri dishes. […] Then the treated CCSMCs were lysed with RIPA buffer and subjected to 8% SDS-PAGE electrophosis. Expression of eNOS and other proteins were detected by Western blot. After exposing with super ECL luminescence substrate, the band was analyzed with a Optical density scanner. The resulted results were analyzed by normalizing to β-actin.

[3] = system: PAE cells; test: eNOS protein expression by Western blot in PAE cells; format: cell-based, porcine; conditions: 12.5 μM, 24 hr; for eNOS protein expression (normalized to β-actin): PAE cells; for eNOS expression levels: unstable strains
Description: 2) 5×10^5 of the PAE cells and PAE-EGFR cells were seeded into 35 mm Petri dishes plate in quadruplicate. After 12 hours, PAE and PAE-EGFR cells was treated with 12.5 μM icariside II and sildenafil for 24 hr, respectively. Then the treated PAE and PAE-EGFR cells were lysed with RIPA buffer and subjected to 8% SDS-PAGE electrophoresis. eNOS protein expression was detect by Western blot. After development with super ECL luminescence substrate, the band was analyzed with a Optical density scanner. The results were analyzed by normalizing to β-actin. 3) 5×10^5 of the PAE cells and PAE-EGFR cells were seeded into 35 mm Petri dishes plate in quadruplicate. After 12 hours, PAE and PAE-EGFR cells was treated with 12.5 μM icariside II and sildenafil for 24 hr, respectively, in the presence or absence with 100 μg/ml of EGF. Then the treated PAE and PAE-EGFR cells were lysed with RIPA buffer and subjected to 8% SDS-PAGE electrophoresis. eNOS protein expression was detect by Western blot. After development with super ECL substrate, the band was analyzed with an Optical density scanner. The resulted results were analyzed by normalizing to β-actin.

[4] = system: Human corpus cavernosum smooth muscle cells; test: RT-PCR mRNA expression of NOS isoforms and PDE5a in corpus cavernosum smooth muscle cells; format: cell-based; conditions: 12.5 μM; 1 day and 2 days treatment
Description: Human corpus cavernosum smooth muscle cells were grown in 60 mm Petri dishes. […] Then the treated CCSMCs were lysed with Trizol and total RNA was extracted and reverse transcribed into cDNA. PCR amplification was carried out using eNOS, iNOS, nNOS and PDE5a specific primers and the specific PCR products represent the mRNA levels.

[5] = target: PDE5 (Homo sapiens, UniProt O76074); conditions: tested in vitro; previous study; cited from earlier work
[6] = system: volunteers with erectile dysfunction; conditions: 500 mg/time, single oral administration before sexual activity; cited from earlier work

Molecule	MPG nerve axon growth compared to control group ([1]; 10 nM, 100 nM, 1000 nM)	MPG nerve axon growth (length of the longest nerve axon) ([1]; 10 nM)	MPG nerve axon growth (length of the longest nerve axon) ([1]; 100 nM)	MPG nerve axon growth (length of the longest nerve axon) ([1]; 1000 nM)	PDE5a protein expression [2]	PKG protein expression [2]	eNOS protein expression [2]	iNOS protein expression [2]	nNOS protein expression [2]	sGC protein expression [2]	eNOS protein expression (normalized to β-actin) [3]	eNOS expression levels [3]	PDE5a mRNA level [4]	eNOS mRNA level [4]	iNOS mRNA level [4]	nNOS mRNA level [4]	PDE5 inhibiting potency [5]	erectile function after single oral administration [6]
CCCc1nn(C)c2c(=O)[nH]c(-c3cc(S(=O)(=O)N4CCN(C)CC4)ccc3OCC)nc12 [Sildenafil, sildenafil, reference compound]	did not significantly affect	215 ± 2.6 μm	238 ± 3.5 μm	219 ± 3.2 μm	decrease	increase	no effect	no effect	no effect	no effect	1.12 ± 0.09	1.38	significantly reduced	not significantly changed	slightly increased after 2 days treatment	not significantly changed		
icariside II	significantly increased	295 ± 5.3 μm*	325 ± 4.1 μm*	406 ± 4.3 μm*	significantly decreased	significantly increased	increased at 2 days	slightly increased	significantly increased	significantly increased	1.08 ± 0.09	2.08	significantly decreased	not changed	slightly increased	significantly increased	significantly lower than sildenafil	some improvement on erectile function, but the effect is not significant

Source: patent publication US8530433B2, “Use of icariside II in manufacture of products for preventing or treating male or female sexual dysfunction” (Bjo-Biomed Ltd, priority 2008, dated 2013)
